{"source": "patent US8609858B2", "about": "“Spiro derivatives of parthenin as novel anticancer agents” (Council of Scientific & Industrial Research, priority 2008, dated 2013)", "key": {"SW-620": {"system": "SW-620", "test": "In vitro cytotoxicity screening (sulphodamine B dye), SW-620", "type": "cell-based", "conditions": "Homo sapiens", "procedure": "(§1) Cells at sub confluent stage were harvested from the flask by treatment with trypsin (0.5% in PBS containing 0.02% EDTA) for determination of cytotoxicity. […] The cell suspensions of required cell density were prepared in complete growth medium with gentamycin (50 μg/ml) for determination of cytotoxicity. The cells (100 μl/well) were inoculated in 96 well tissue culture plates. The cells were allowed to grow for 24 hrs temperature of 37° C. and in a humidified atmosphere of 5% CO2 in air. Stock solution of (20 mM) of test material was prepared in DMSO. The stock solution was serially diluted with complete growth medium containing 50 μg/ml of gentamycin to obtain […] working test solutions of 1., 2, 5, 10, 50 and 100 μM.\n(§2) The media were supplemented with FCS (10%), penicillin (100 Units/ml), streptomycin (100 μg/ml) and glutamine (2 mM) and cells were grown in CO2 incubator (Hera cell, Heraeus, USA) at 37° C. with 90% humidity and 5% CO2."}, "[1]": {"system": "acute lymphoblastic leukemia Cells (MOLT-4)", "test": "DNA fragmentation by DNA gel electrophoresis", "type": "cell-based, human", "conditions": "10, 50 & 100 μM, 24 hrs", "procedure": "DNA fragmentation was determined by electrophoresis of extracted genomic DNA from acute lymphoblastic leukemia Cells (MOLT-4). Briefly, exponentially growing cells (3×10^6 cells/ml) in 6 well plates were treated with “Compound-17” (1, 10, 50 and 100 μM) for 24 hrs. Cells were harvested, washed with PBS, pellets were dissolved in lysis buffer (10 mM EDTA, 50 mM Tris Buffer, pH 8.0, 0.5% w/v SDS and proteinase K 0.5 mg/ml) and incubated at 50° C. for 1 hr. lysate was further incubated with RNase A (0.5 mg/ml) at 50° C. for 1 hr. Finally, the DNA obtained was heated rapidly to 70° C., supplemented with loading dye and immediately resolved on to 1.5% agarose gel at 50 V for 2-3 hrs (FIG. 2)."}, "[2]": {"system": "Ehrlich Ascites Tumor (EAT)", "test": "Anti tumor activity on solid Ehrlich Ascites Tumor (EAT) bearing mice", "type": "in vivo", "conditions": "for % Tumor growth inhibition / Tumor Weight (mg) Mean ± SE: nine days, day 13", "text": "Non-inbred swiss albino mice from an in-house colony were used in the present study. The breeding and experimental animals were housed in standard size polycarbonate cages providing internationally recommended space for each animal. Animals were fed balanced mice feed supplied by MIs Ashirwad Industries, Chandigarh (India) and autoclaved water was available ad libitum. Animals were cared as per the guide for the care and use of laboratory animals (1996), ILAR, Washington D.C. They were housed in controlled conditions of temperature (23±2° C.), humidity (50-60%) and 12:12 hrs of light: dark cycle. The study and the number of animals used were approved by the institutional animal ethics committee, IIIM, Jammu, India. The study was conducted as per the protocols of National Cancer Institute (NCl), USA (Geran et al., 1972).\nParthenin and its derivative Compound-17 were evaluated against solid Ehrlich Ascites Tumor (EAT) models at different doses. A standard procedure for experiment was as followed:\nAnimals of the same sex weighing 20±3 g were injected 1×10^7 cells collected from the peritoneal cavity of non-inbred swiss mice, bearing 8-10 days old tumor cells, into the right thigh, intramuscularly (on Day 1). On next day animals were randomized and divided into test groups (7 animals in each test group) and one tumor control group (10 animals). Test groups were treated with different doses of Parthenin (10 mg/kg, 25 mg/kg and 50 mg/kg) and its derivative Compound-17 (10 mg/kg, 25 mg/kg and 50 mg/kg, 100 mg/kg and 200 mg/kg) suspension in 1% gum acacia in, their respective group intraperitonealy for nine consecutive days. Another test group was administered 5-FU @ 22 mg/kg i.p and served as positive control. The tumor contra group was similarly administered normal saline (0.2 ml i.p). The percent tumor growth-inhibition was measured on day 13 with respect to their tumor weight (Geran et al., 1972): Shortest and longest diameters of the tumor mass were measured with the help of vernier caliper and tumor weight (mg) was calculated by using following formula Tumor weight (mg)=Length (mm)×(Width (mm)^2/2 The average tumor weight for each group was calculated and the percent tumor growth inhibition in treated groups was calculated as follows: % Tumor Growth Inhibition=100×(Average tumor weight of control group−Average tumor weight of test group)/Average tumor weight of control group Anti Tumor Activity of Parthenin and its Derivative Compound-17 on Ehrlich Ascites Carcinoma (EAC)"}, "DU-145": {"system": "DU-145", "test": "In vitro cytotoxicity screening (sulphodamine B dye), DU-145", "type": "cell-based", "conditions": "Homo sapiens", "procedure": "as §1, §2"}, "MOLT-4 cells": {"system": "MOLT-4 cells", "test": "DNA cell cycle analysis by flow cytometry", "type": "cell-based, human", "conditions": "for Sub G1 population: 24 hrs", "procedure": "Effect of “Compound-17” on DNA content by cell cycle phase distribution was assessed using human leukemia MOLT-4. The MOLT-4 cells (1×10^6 cells/ml) in RPMI-1640 medium were incubated with “Compound-17” (1, 10, 50 and 100 μM) for 24 hrs. The cells were then washed twice with ice-cold PBS, harvested, fixed with ice-cold PBS in 70% ethanol, and stored at −20° C. for 30 min. After fixation, the cells were incubated with RNase A (0.1 mg/ml) at 37° C. for 30 min, stained with propidium iodide (50 μg/ml) for 30 min on ice in dark, and then measured for DNA content using BD-LSR Flow cytometer (Becton Dickinson, USA) equipped with electronic doublet discrimination capability using blue (488 nm) excitation from argon laser. Data were collected in list mode on 10,000 events for FL2-A vs. FL2-W and analyzed (FIG. 3).^3d"}}, "data": [{"smiles": "C[C@H]1CC[C@@H]2[C@@H](OC(=O)C23CC(c2c4ccccc4cc4ccccc24)=NO3)[C@]2(C)C(=O)C=C[C@@]12O", "note": "(stereo partly shown) [Compound -17]", "values": [{"measurement": "IC50", "setting": "SW-620; SW-620 colon cancer cell line", "value": 4.3, "unit": "µM"}, {"measurement": "inhibition at 5 µM", "setting": "SW-620; at 5 μM, SW-620, read-out: cell growth inhibition", "value": 72, "unit": "%"}, {"measurement": "DNA ladder (DNA fragmentation)", "setting": "[1]", "value": "DNA ladder was observed"}, {"measurement": "% Tumor growth inhibition", "setting": "[2]; 10 mg/kg i.p.", "value": 9.44, "unit": "%"}, {"measurement": "Tumor Weight (mg) Mean ± SE", "setting": "[2]; 10 mg/kg i.p.", "value": "1547.14 ± 36.63", "unit": "mg"}, {"measurement": "% Tumor growth inhibition", "setting": "[2]; 25 mg/kg i.p.", "value": 15.38, "unit": "%"}, {"measurement": "Tumor Weight (mg) Mean ± SE", "setting": "[2]; 25 mg/kg i.p.", "value": "1445.71 ± 41.52", "unit": "mg"}, {"measurement": "% Tumor growth inhibition", "setting": "[2]; 50 mg/kg i.p.", "value": 22.03, "unit": "%"}, {"measurement": "Tumor Weight (mg) Mean ± SE", "setting": "[2]; 50 mg/kg i.p.", "value": "1332.14 ± 32.59", "unit": "mg"}, {"measurement": "% Tumor growth inhibition", "setting": "[2]; 100 mg/kg i.p.", "value": 35.11, "unit": "%"}, {"measurement": "Tumor Weight (mg) Mean ± SE", "setting": "[2]; 100 mg/kg i.p.", "value": "1108.57 ± 38.02", "unit": "mg"}, {"measurement": "mortality of test animals", "setting": "[2]; 200 mg/kg i.p., EAT bearing mice", "value": "All animals died by 3rd day"}, {"measurement": "IC50", "setting": "DU-145; DU-145 prostate cancer cell line", "value": 4.6, "unit": "µM"}, {"measurement": "inhibition at 5 µM", "setting": "DU-145; at 5 μM, DU-145, read-out: cell growth inhibition", "value": 85, "unit": "%"}, {"measurement": "Sub G1 population", "setting": "MOLT-4 cells; 1 μM", "value": 6.58, "unit": "%"}, {"measurement": "Sub G1 population", "setting": "MOLT-4 cells; 10 μM", "value": 33.09, "unit": "%"}, {"measurement": "Sub G1 population", "setting": "MOLT-4 cells; 50 μM", "value": 33.2, "unit": "%"}, {"measurement": "blockage of G1 phase of cell cycle", "setting": "MOLT-4 cells; 100 μM", "value": "complete blockage of G1 phase"}, {"measurement": "Sub G1 population", "setting": "MOLT-4 cells; 100 μM", "value": 55, "unit": "%"}]}]}
